From PMC4821887, “Identification of chemicals that mimic transcriptional changes associated with autism, brain aging and neurodegeneration” (Nature Communications, 2016)
Entries after “also recorded” stand apart in the source; their conditions may differ.

How the values were obtained:
[1] = system: mitochondrial superoxide in cortical neurons; assay: Mitochondrial superoxide detection (MitoSOX Red live-cell imaging); assay type: cell-based, mouse; settings: 2 h treatment, MitoSOX, vincristine 500 µM in Supplementary Fig. 10b
purified tubulin = assay: Tubulin polymerization assay (cell-free, BK011P); assay type: biochemical; settings: 37 °C, fluorescence over 60 min, equimolar doses
[2] = system: mouse cortical neuron cultures; assay: Fluorescence immunocytochemistry for cellular composition (NeuN, Gfap, Iba1); assay type: cell-based; settings: 10 μM, 24 h, relative to vehicle
[3] = system: mouse cortical neuron cultures; settings: mouse, 24 h, 10 µM
[4] = system: mouse cortical neuron-enriched cultures; assay: RNA-seq transcriptional screen with hierarchical clustering and cluster membership; assay type: cell-based; settings: 24 h at non-toxic concentration; hierarchical clustering of 5,121 variably expressed genes
Description: Cultures were treated with the non-cytotoxic dose of each chemical, by exchanging half of the original medium with chemicals at 2 × concentration in prewarmed feeding medium, on DIV 7 for 24 h in 12-well plates at a density of 5 × 10^5 cells per well. RNA was isolated using RNeasy plus mini kit (Cat. #74134, Qiagen). RNA yield and quality were determined using a Nanodrop 1000 Spectrophotometer (Thermo Scientific). Samples were further assessed for quality using either an Agilent Bioanalyzer 2100 or TapeStation 2200 to obtain a RIN. RIN values exceeding 7 were used for sequencing. RNA samples were used to generate and barcode complementary DNA libraries using the TruSeq RNA Library Preparation Kit at the UNC High Throughput Sequencing Facility. Pools of 24 multiplexed samples were sequenced per lane on an Illumina HiSeq 2500 using 50-bp paired-end reads.
RNA-seq reads were filtered using TagDust and aligned to the reference mouse genome (mm9) with TopHat using default parameters. Reads aligning to ribosomal RNA genes were removed. Transcript abundance was estimated by computing Reads per kilobase per million mapped reads (RPKM) using RefSeq gene models aggregated by gene symbol. For differential expression analyses, raw counts over RefSeq exons were used, and then were compared across samples using DESeq[62].
RPKMs for all RefSeq genes and all samples were filtered such that a given gene had >90% of samples with RPKM >0 and gene length exceeded 500 bp. RPKMs were then log10-transformed, quantile-normalized, median-centred, and the effects due to culture or sequencing batch were removed using a mixed model analysis of variance. This batch correction step was performed on individual experiments rather than chemical–vehicle ratios to reduce the effects due to variations in culture composition as well as batch-to-batch variations at the level of sequencing. Genes were then median-centred again, and filtered such that their s.d. exceeded 0.1. Chemical replicates were then combined using the median. Classes of chemicals were then discovered in two ways. First, we performed hierarchical clustering using average linkage and Pearson correlation distance measures. The boundaries of the discovered classes from clustering were set by computing pairwise Spearman correlations for all samples. A given cluster had to have at least three members with the minimum pairwise Spearman correlation coefficient exceeding 0.2, though cluster members often exceeded a correlation of 0.6 (Supplementary Fig. 5c,d). Seven chemical clusters were discovered, however one was removed due to failing to have a positive silhouette width, a metric of cluster robustness. These definitions enabled the three positive control topoisomerase inhibitors to form a cohesive group of chemicals with known structural and functional similarity (cluster 5). None of the culture or sequencing batches contributed to the formation of any one of the final six clusters (Supplementary Fig. 4).

CSC1=N[C@@](C)(c2ccccc2)C(=O)N1Nc1ccccc1 [fenamidone]
Mitochondrial superoxide (O2−) production [1]: dose dependent | Mitochondrial superoxide (O2−) production ([1]; listed as Fenamidone): concentration-dependent increase | Effect on tubulin polymerization (purified tubulin): did not impair | Change in cellular composition (number of NeuN, Gfap or Iba1 positive cells) [2]: did not; also recorded: no significant change | % Dead cells (vehicle subtracted) [3]: 1.638% | Chemical cluster assigned by gene expression [4]: cluster 2
